{"source": "paper PMC10586324", "about": "(Journal of medicinal chemistry, 2023)", "key": {"[1]": {"experiment": "Plasma stability, murine plasma", "type": "in vitro ADME", "conditions": "1 μM, 120 min"}, "Mabs": {"system": "Mabs", "conditions": "enantiomers; cited from earlier work"}, "[2]": {"conditions": "oral administration, rats; cited from earlier work"}, "[3]": {"conditions": "oral administration, mice; cited from earlier work"}, "Mabs ATCC19977": {"system": "Mabs ATCC19977", "experiment": "MBC determination by CFU counting"}, "[4]": {"system": "HEP 93 liver cancer cell line", "conditions": "cited from earlier work"}, "[5]": {"experiment": "Nephelometry kinetic solubility screen in PBS", "type": "physicochemical"}}, "note": "Like-named read-outs stand apart in the source and are kept apart here.", "data": [{"smiles": "O=C(N[C@H](Cc1ccccc1)C(=O)Nc1ccccc1N1CCS(=O)(=O)CC1)c1ccccc1F", "note": "[Compound 24]", "values": [{"measurement": "stability in murine plasma", "setting": "[1]", "value": "improved stability"}]}, {"smiles": "O=C(N[C@H](Cc1ccccc1)C(=O)Nc1ccccc1N1CCOCC1)c1cccs1", "note": "[MMV688845, Nα-2-thiophenoyl-D-phenylalanine-2-morpholinoanilide]", "values": [{"measurement": "activity against Mabs", "setting": "Mabs", "value": "shows activity"}, {"measurement": "drug plasma levels", "setting": "[2]", "value": "low drug plasma levels"}, {"measurement": "stability in murine plasma", "setting": "[1]", "value": "stronger decline in concentration than compound 24"}, {"measurement": "drug plasma levels", "setting": "[3]", "value": "low drug plasma levels"}, {"measurement": "MBC99 as multiple of MIC90", "setting": "Mabs ATCC19977", "value": 8, "unit": "X MIC90"}, {"measurement": "reduction of viable bacteria", "setting": "Mabs ATCC19977; at 6.25 μM (derivatives: 6.25 μM and higher)", "value": "no reduction"}, {"measurement": "cytotoxicity HEP 93", "setting": "[4]", "value": "non-cytotoxic"}]}, {"smiles": "O=C(N[C@H](Cc1ccccc1)C(=O)Nc1ccccc1N1CCS(=O)(=O)CC1)c1cccs1", "note": "[Compound 20]", "values": [{"measurement": "MBC99 as multiple of MIC90", "setting": "Mabs ATCC19977", "value": 2, "unit": "X MIC90"}]}, {"smiles": "O=C(N[C@H](Cc1ccccc1)C(=O)Nc1ccccc1N1CC[S+]([O-])CC1)c1ccccc1F", "note": "[Compound 15]", "values": [{"measurement": "solubility relative to MMV688845", "setting": "[5]", "value": "approximately 5 times"}, {"measurement": "MBC99 as multiple of MIC90", "setting": "Mabs ATCC19977", "value": 2, "unit": "X MIC90"}]}]}
